Measurements: patent publication US4499269A, “Fused 1,3,5-triazines” (Fisons plc, priority 1982, dated 1985)

Experiments:
[1] = system: delayed hypersensitivity reaction to PPD; assay: Delayed hypersensitivity reaction to PPD in guinea pigs, topical under occlusion (Example C); type: in vivo; details: for % Inhibition 24h after challenge: Diameter of erythema / % Inhibition 24h after challenge: Erythema score / % Inhibition 24h after challenge: Increase in skin thickness: topical under occlusion, n=6
Experimental: Male guinea pigs weighing 250-300 g were sensitised by a subcutaneous injection of Freunds Complete Adjuvant (Difco) in saline. Fourteen days following sensitisation animals were challenged intradermally into a shaved flank with 50 μg of purified protein derivative PPD (in 0.1 ml of saline). Changes in skin thickness were determined immediately before and 24 h and 48 h after antigen challenge. In addition, the diameter of reaction and a semiquantitative estimate of the degree of erythema were determined at 24 h and 48 h.
The compound of Example 1 was applied topically under an occlusive dressing. This consisted of adding a solution of the compound in dimethylacetamide (0.3 ml) to a filter paper square (4×4 cm) backed by surgical tape placed on the challenge site and held in place by adhesive bandage encircling the torso of the animal. The dressing was applied 10 min after challenge and removed 24 h later. Control animals received dimethylacetamide alone to the challenge site.
The effect of the compound of Example 1 applied under occlusion, with antigen challenge, on the delayed hypersensitivity reaction to PPD in guinea pigs (n=6)

[2] = system: delayed contact sensitivity to oxazolone (increase of ear thickness); assay: Delayed contact sensitivity to oxazolone in mice (Example A); type: in vivo; details: for inhibition of increased ear thickness: 24 hours after challenge
Experimental: This response is a measure of a cell-mediated immune response which is dependent on the activity of thymus-derived lymphocytes. Mice are sensitised with 100 μl of oxazolone and are subsequently challenged with 15 μl of 3% oxazolone on their right ears on day 7. The resulting cell-mediated response is measured 24 hours after challenge by assessing the increase of ear thickness using a dial gauge. The unchallenged left ears act as controls.

rejection of skin grafts = assay: Rejection of tailskin grafts in mice, graft survival (Example B); type: in vivo, mice (CBA strain donors, Lac/a strain recipients)
Experimental: The tailskin grafting method of Bailey and Usania (Transplantation Bulletin 7, 424-5, 1960) was used.
Sections of tailskin from donor CBA strain mice (agonti) were grafted onto the tails of 16 Lac/a strain mice (albino). Test compound was given from 2 days prior to grafting until graft loss at a dose of 50 mg/kg/day in 1% "Tween 80"/saline vehicle by the intraperitoneal route. Graft condition was assessed daily and mean graft survival time (days) of vehicle, and drug tested groups, was compared.

SMILES: COc1ccc2c(c1)sc1nc(N)nc(=Nc3ccccc3)n12 [Example 1, 2-Amino-8-methoxy-4-phenylimino-4H-1,3,5-triazino[2,1-b]benzothiazole]
- % Inhibition 24h after challenge: Diameter of erythema ([1]; 1% in dimethylacetamide): 5%
- % Inhibition 24h after challenge: Erythema score ([1]; 1% in dimethylacetamide): 20%
- % Inhibition 24h after challenge: Increase in skin thickness ([1]; 1% in dimethylacetamide): 20%
- inhibition of the increase in skin thickness ([1]; 1 to 3% in dimethylacetamide, 24 hours post challenge, result in words): dose dependent inhibition of the increase in skin thickness
- reaction diameters and erythema scores ([1]; 1 to 3% in dimethylacetamide, compared with dimethylacetamide controls, result in words): significantly reduced the reaction diameters and erythema scores
- % Inhibition 24h after challenge: Diameter of erythema ([1]; 2% in dimethylacetamide): 16%
- % Inhibition 24h after challenge: Erythema score ([1]; 2% in dimethylacetamide): 32%
- % Inhibition 24h after challenge: Increase in skin thickness ([1]; 2% in dimethylacetamide): 35%
- % Inhibition 24h after challenge: Diameter of erythema ([1]; 3% in dimethylacetamide): 34%
- % Inhibition 24h after challenge: Erythema score ([1]; 3% in dimethylacetamide): 63%
- % Inhibition 24h after challenge: Increase in skin thickness ([1]; 3% in dimethylacetamide): 50%
- suppression of delayed hypersensitivity reaction ([1]; guinea pigs, dosed topically, result in words): suppress a delayed hypersensitivity reaction in guinea pigs
- inhibition of delayed contact sensitivity to oxazolone ([2]; mice, result in words): inhibit a delayed contact sensitivity to oxazolone in mice
- inhibition of increased ear thickness ([2]; single dose 50 mg/kg intraperitoneal on day 1 relative to sensitisation): 44%
- inhibition of increased ear thickness ([2]; single dose 50 mg/kg intraperitoneal on day 2 relative to sensitisation): 44%
- inhibition of increased ear thickness ([2]; single dose 50 mg/kg intraperitoneal on day 3 relative to sensitisation): 49%
- inhibition of increased ear thickness ([2]; single dose 50 mg/kg intraperitoneal on day 7 relative to sensitisation): 61%
- inhibition of increased ear thickness ([2]; single dose 50 mg/kg intraperitoneal on one of days -1, 0, 1, 2, 3 or 7 relative to sensitisation, result in words): inhibition of increased ear thickness
- prolongation of skin graft survival (rejection of skin grafts; 50 mg/kg/day intraperitoneal from 2 days prior to grafting until graft loss, versus vehicle, significant): 2.5 days
- suppression of the rejection of skin grafts (rejection of skin grafts; mice, result in words): suppress the rejection of skin grafts in mice
